# In US4138482A, “3-Cyano-N-(N,N-dimethylaminopropyl)-iminodibenzyl and salts thereof” (Hoffmann-La Roche Inc., priority 1976, dated 1979):
# Where a name gives a salt, the structure may show the parent alone.
# Experiments:
# [1] = test system: neuronal serotonin uptake; assay: Antidepressive activity / inhibition of the neuronal serotonin uptake in animal experiments; type: in vivo
# Excerpt: The compound of formula I and its pharmaceutically acceptable acid addition salts, are therefore useful, for example, for the treatment of depressions of endogenous or exogenous origin. More specifically, they are useful as antidepressants.
# Solubility = type: physicochemical; settings: free base
# [2] = Anticholinergic side-effects; settings: for example mouth dryness, constipation, tachycardia and/or accommodation disorders
# [3] = test system: serotonin uptake in blood platelets of the rat; assay: Inhibition of the serotonin uptake in vitro (blood platelets); type: cell-based
# Method: 4. Inhibition of the serotonin uptake in vitro
# 0.5 Ml. of blood plasma was treated with different concentrations of test substance in 50 μl of physiological sodium chloride solution. After incubating at 37° C. for 5 minutes, serotonin (C^14; 0.1 μM) was added and the mixture was incubated at 37° C. for an additional 5 minutes. The serotonin concentration was determined by means of a C^14 measuring apparatus. A control experiment in which no test substance is used was also carried out.
# [4] = test system: serotonin uptake in blood platelets of the rat; assay: Inhibition of the serotonin uptake in vivo (blood platelets); settings: ip; for inhibition at 5 mg/kg: Rattus norvegicus, Platelet, 5.0 mg/kg intraperitoneally twice daily over 4 days, 12 hours after last administration, read-out: Inhibition in % of the control; for Serotonin in mmol/mg. of protein: 5 mg/kg
# Method: 5. Inhibition of the serotonin uptake in vivo
# Rats were given twice daily over a period of 4 days an intraperitoneal injection of 5.0 mg. of test substance per kg. and 12 hours after the last administration the rats were killed. Serotonin was determined spectrofluorimetrically as described in J. Pharmacol. exp.
# [5] = test system: serotonin uptake in the synaptosomes of the forebrain of rats; assay: Inhibition of the serotonin uptake ex vivo; type: in vivo, rat; settings: for ED50: Rattus norvegicus, ip, injected intraperitoneally, serotonin uptake measured after 1 hour, rats
# Method: (§1) The uptake of serotonin in the synaptosomes of the forebrain of rats was tested according to J. Pharmacol. exp.
# 2. Inhibition of the serotonin uptake ex vivo
# An analogous experimental procedure to that given under 1 was utilized. The test substances were, however, injected intraperitoneally; the serotonin uptake was measured after 1 hour. Untreated rats were used as the controls.
# [6] = test system: serotonin uptake in the synaptosomes of the forebrain of rats; assay: Inhibition of the serotonin uptake in vitro (synaptosomes of the forebrain of rats); type: biochemical, rat; settings: for IC50: synaptosomes of the forebrain of rats, read-out: ED50 (inhibition of 50%) of serotonin uptake in vitro
# Method: 1. Inhibition of the serotonin uptake in vitro
# as §1
# [7] = test system: serotonin re-uptake ("membrane pump"); assay: Inhibition of the serotonin re-uptake in vivo (action of the "membrane pump"); design: species or system rat; settings: for ED50: Rattus norvegicus, "membrane pump", Biochem. Pharmacol. 20, 707, 1971
"solubility in organic solvents (Solubility; dimethylsulfoxide, dimethylformamide, chlorinated hydrocarbons (chloroform, methylene chloride), alkanols (methanol, ethanol), ether and benzene)",Structure (SMILES),antidepressive activity [1],inhibition of the neuronal serotonin uptake [1],solubility in water (Solubility; water),anticholinergic side-effects [2],times greater activity than substance B ([3]; versus known substance B) [times],times greater activity than substance C ([3]; versus known substance C) [times],inhibition at 5 mg/kg [4] [%],Serotonin in mmol/mg. of protein [4],ED50 [5] [mg/kg],"as active as substance B in times smaller doses ([5]; versus known substance B, ex vivo) [times]","as active as substance C in times smaller doses ([5]; versus known substance C, ex vivo) [times]",IC50 [6] [nM],"times greater activity than substance B ([6]; versus known substance B, synaptosomes) [times]","times greater activity than substance C ([6]; versus known substance C, synaptosomes) [times]",ED50 [7] [mg/kg],"as active as substance B in times smaller doses ([7]; versus known substance B, in vivo re-uptake) [times]","as active as substance C in times smaller doses ([7]; versus known substance C, in vivo re-uptake) [times]"
relatively good solubility,"CN(C)CCCN1c2ccccc2CCc2ccc(C#N)cc21 [3-cyano-N-(N,N-dimethylaminopropyl)-iminodibenzyl]",strong antidepressive activity,extraordinarily strong inhibition of the neuronal serotonin uptake,soluble in water with relative difficulty,confined to a minimum,,,,,,,,,,,,,
,"CN(C)CCCN1c2ccccc2CCc2ccc(C#N)cc21 [Substance A, 3-Cyano-N-(N,N-dimethylaminopropyl)-iminodibenzyl hydrochloride]",,,,,130,20,61,4.09 ± 1.30 mmol/mg. of protein,0.9,21,2.4,1.5,52,4.2,0.7,18,9
,"CN(C)CCCN1c2ccccc2CCc2ccccc21 [Substance B, N-(N,N-Dimethylaminopropyl)-iminodibenzyl hydrochloride, reference compound]",,,,,,,14,9.72 ± 2.12 mmol/mg. of protein,19,,,78,,,12.8,,
